The results in this text go back to patent US20070167488A1, “Novel therapeutic use” (Leo Pharma A/S, priority 2003, published 2007).

The test system of this assay is IL-2. In words: Inhibition of IL-2 production in phytohemagglutinin-activated human PBMCs (sandwich ELISA). The assay is classed as cell-based. The note with it: PBMC, approximately 46 hours, read-out: IL-2 pIC50 (converted). The procedure: Peripheral blood mononuclear cells (PBMCs) were isolated from human blood. The lymphocytes, a fraction of the PBMCs, were activated to secrete IL-2 using the polyclonal mitogen phytohemagglutinin. The test compounds were added in concentrations from 10^−5 to 10^−10, and the cells (10^6/ml) were incubated in microtiter wells at 37° C. for approximately 46 hours.
After 46 hours the cells were centrifuged down for 25 minutes at 1000×g and the supernatants were transferred to transferred to microtiter wells precoated with a monoclonal antibody against human IL-2. The IL-2 concentration in the supernatants was determined by a sandwich ELISA. Microtiter plates were coated (1 μg/ml) with a monoclonal antibody (R&D, UK) against human IL-2, washed 4 times, blocked with 1% casein buffer for 2 hours and washed 2 times. 100 μl sample was added to each well and incubated overnight. All samples were tested in triplicate. 100 μl IL-2 standards (R&D, UK) at a concentration range of 10000-0 pg/ml were tested in triplicate. After incubation the plates were washed and incubated with biotinylated polyclonal secondary antibody against human IL-2 (R&D, UK) for 45 minutes and thereafter washed 4 times. 100 μl enzyme conjugate, horseradish peroxidase conjugated streptavidin diluted 1:4000 (Zymed, USA), was added to all wells and incubated for 30 minutes. 100 μl OPD substrate (KEM EN TEC-DK) was added and the enzyme/substrate reaction stopped after 10 minutes at room temperature with 50 μl 1 M H2SO4. The colour development (optical density—OD) was determined at 492 nm on an ELISA reader and the background OD at 620 nm subtracted).

Read-outs that look alike come from different tables or passages of the source.

`O=C1Nc2ccccc2/C1=C\c1ccc2cc[nH]c2c1`: the IC50 (Homo sapiens, 46 h) was 6.31 nM. Regarding `CCOc1ccc(OCC)c(/C=C2/C(=O)Nc3ccccc32)c1`, for the setting “Homo sapiens, 46 h”, the IC50 is 631 nM.

In the case of `Cn1cc(/C(C(=O)O)=C2\C(=O)Nc3ccccc32)c2ccccc21`, where the note is “Homo sapiens, 46 h”, the IC50 was 794 nM. Same read-out and setting: the same measure for `O=C1Nc2ccccc2/C1=C/c1ccccc1F`: 63.1 nM; for `O=C1Nc2ccccc2/C1=C/c1ccc(Cl)cc1`: 79.4 nM. Still for that read-out and setting: under `Cc1cc(C(=O)OCc2ccncc2)[nH]c1/C=C1\C(=O)Nc2ccccc21` stands 31.6 nM. The same measure, in the same setting: the same measure for `Cc1cc(C)c(/C=C2\C(=O)Nc3cccc(C(=O)O)c32)[nH]1`: 100 nM; for `Cc1cc(C)c(/C=C2\C(=O)Nc3ccc(O)cc32)[nH]1`: 794 nM; for `O=C1Nc2ccccc2/C1=C/c1c[nH]c2ccc(OCc3ccccc3)cc12`: 10 nM. For `COc1ccc2c(/C=C3\C(=O)Nc4ccccc43)c[nH]c2c1`, under “Homo sapiens, 46 h”, the IC50 was 0.2 nM.

For `COc1ccc(OC)c(/C=C2/C(=O)Nc3ccc(Cl)cc32)c1`, the IC50 (Homo sapiens, 46 h) is 6.31 nM. For `O=C1Nc2ccccc2/C1=C\c1ccc(Cl)cc1Cl`, the IC50 (Homo sapiens, 46 h) is 1 nM. Consider `Cc1cc(C(=O)NCC2CCCO2)[nH]c1/C=C1\C(=O)Nc2ccccc21` (stereo not drawn), for which the IC50 (Homo sapiens, 46 h) was 20 nM. On to `O=C1Nc2ccc(Br)cc2/C1=C/c1c[nH]c2ccccc12`, for which, where the note is “Homo sapiens, 46 h”, the IC50 is 2 nM. For `O=C1Nc2ccc(F)c(F)c2/C1=C/c1c[nH]c2ccccc12`, the IC50 (Homo sapiens, 46 h) was 3.98 nM. Regarding `Cc1ccc(/C=C2/C(=O)Nc3ccccc32)c(C)c1`, the IC50 (Homo sapiens, 46 h) is 1 nM. Same read-out and setting: under `Cc1cc(/C=C2/C(=O)Nc3ccccc32)sc1C` stands 100 nM; under `O=C1Nc2cc(F)ccc2/C1=C/c1c[nH]c2ccccc12`, 3.16 nM.

Turning to `O=C1Nc2ccccc2/C1=C/c1ccc(Cl)cc1Cl`, the IC50 (Homo sapiens, 46 h) was 200 nM.

Regarding `Cc1cc(C)cc(-c2ccc(N(C)CCN(C)C)c(/C=C3\C(=O)Nc4ccccc43)c2)c1`, the IC50 (Homo sapiens, 46 h) was 63.1 nM.

Consider `CCOC(=O)CCn1cc(/C=C2\C(=O)Nc3ccccc32)c2ccccc21`, for which, where the note is “Homo sapiens, 46 h”, the IC50 is 200 nM. `O=C1Nc2ccccc2/C1=C\c1ccc(Cl)c(Cl)c1`: the IC50 (Homo sapiens, 46 h) was 1 nM. Same read-out and setting: the same measure for `COc1ccc(O)c(/C=C2/C(=O)Nc3ccccc32)c1`: 316 nM; for `CCOC(=O)c1cc(C)c(/C=C2\C(=O)Nc3ccccc32)[nH]1` [drawing 139]: 10 nM; for `O=C1Nc2ccccc2/C1=C\c1ccc(Br)s1`: 20 nM. The same measure, in the same setting: the same measure for `O=C1Nc2ccccc2/C1=C\c1cc(-c2ccccc2)cs1`: 31.6 nM.

For the molecule `CCn1c2ccccc2c2cc(/C=C3/C(=O)Nc4ccccc43)ccc21`, the IC50 (Homo sapiens, 46 h) is 200 nM. Still for that read-out and setting: the same measure for `O=C1Nc2ccccc2/C1=C\c1c[nH]c2c(F)c(F)c(F)c(F)c12`: 2 nM; for `COc1ccc(OC)c(/C=C2/C(=O)Nc3ccc(C(F)(F)F)cc32)c1`: 631 nM; for `Cc1[nH]c(/C=C2\C(=O)Nc3ccccc32)c(C)c1CCC(=O)O`: 50.1 nM. Take `Cn1cc(/C=C2\C(=O)Nc3ccccc32)c2ccccc21`: where the note is “Homo sapiens, 46 h”, the IC50 was 2 nM. On the same count and under the same terms, the same measure for `Cc1cccc2c(/C=C3/C(=O)Nc4ccccc43)c[nH]c12`: 3.98 nM; for `COc1ccc(OC)c(/C=C2/C(=O)Nc3cc(Cl)ccc32)c1`: 31.6 nM. Same read-out and setting: under `Cc1cc(/C=C2/C(=O)Nc3ccccc32)oc1C` stands 3.98 nM.

Regarding `O=C1Nc2ccccc2/C1=C\c1cccc(Br)c1`, under “Homo sapiens, 46 h”, the IC50 was 10 nM. On the same count and under the same terms, the same measure for `O=C1Nc2ccccc2/C1=C\c1ccoc1`: 631 nM; for `COc1ccc(OC)c(/C=C2/C(=O)Nc3ccccc32)c1` [drawing 114]: 3.98 nM; for `O=C1Nc2ccc(Cl)cc2/C1=C/c1c[nH]c2ccccc12`: 10 nM. On the same count and under the same terms, the same measure for `O=C1Nc2ccccc2/C1=C\c1cccc(Cl)c1`: 10 nM; for `O=C1Nc2c(F)cccc2/C1=C/c1c[nH]c2ccccc12`: 0.316 nM; for `COc1ccc(OC)c(/C=C2/C(=O)N(O)c3ccccc32)c1`: 10 nM. Same read-out and setting: under `O=C1Nc2c(F)cc(F)cc2/C1=C/c1c[nH]c2ccccc12` stands 2 nM; under `O=C1Nc2cc(Br)ccc2/C1=C/c1c[nH]c2ccccc12`, 3.16 nM. Consider `Cc1cc(C)c(/C=C2\C(=O)Nc3ccccc32)[nH]1`, for which the IC50 was 0.2 nM.

With `O=C1Nc2ccccc2/C1=C\c1cccc(F)c1`, under “Homo sapiens, 46 h”, the IC50 is 200 nM. The same measure, in the same setting: the same measure for `COc1cc(OC)c(OC)cc1/C=C1/C(=O)Nc2ccccc21`: 2 nM. Still for that read-out and setting: the same measure for `O=C1Nc2ccccc2/C1=C\c1cc(Br)cs1`: 6.31 nM. Turning to `CON1C(=O)/C(=C\c2[nH]c(C)cc2C)c2ccccc21`, for the setting “Homo sapiens, 46 h”, the IC50 was 10 nM. As to `CCN(CC)CCNC(=O)c1cc(C)c(/C=C2\C(=O)Nc3ccccc32)[nH]1`, the IC50 (Homo sapiens, 46 h) was 39.8 nM.

For `O=C1Nc2ccccc2/C1=C/c1cc(Br)ccc1O`, the IC50 (Homo sapiens, 46 h) is 20 nM. Take `CCOC(=O)CCCCCNC(=O)c1cc(C)c(/C=C2\C(=O)Nc3ccccc32)[nH]1`: the IC50 (Homo sapiens, 46 h) is 79.4 nM. `Cc1cc(C(=O)NCC2CCCCC2)[nH]c1/C=C1\C(=O)Nc2ccccc21`: for the setting “Homo sapiens, 46 h”, the IC50 was 31.6 nM. In the case of `Cc1ccc(/C=C2\C(=O)Nc3ccccc32)c(C)c1`, where the note is “Homo sapiens, 46 h”, the IC50 is 631 nM.

Take `N#Cc1ccc2c(c1)/C(=C/c1c[nH]c3ccccc13)C(=O)N2`: for the setting “Homo sapiens, 46 h”, the IC50 is 1 nM. On the same count and under the same terms, the same measure for `Cc1cc(C(=O)OCc2ccccc2)[nH]c1/C=C1\C(=O)Nc2ccccc21`: 20 nM; for `Cn1c(/C=C2/C(=O)Nc3ccccc32)cc2ccccc21`: 100 nM.

Consider `Cc1cc(C)c(/C=C2\C(=O)Nc3cccc(C)c32)[nH]1`, for which, for the setting “Homo sapiens, 46 h”, the IC50 was 39.8 nM. The same measure, in the same setting: under `Cc1ccc2[nH]cc(/C=C3/C(=O)Nc4ccccc43)c2c1` stands 20 nM.

As to `Cc1cc(C(=O)O)[nH]c1/C=C1\C(=O)Nc2ccccc21`, the IC50 (Homo sapiens, 46 h) was 200 nM. Still for that read-out and setting: under `Cc1cc(C(=O)NCCc2c[nH]c3ccccc23)[nH]c1/C=C1\C(=O)Nc2ccccc21` stands 39.8 nM; under `O=CN1CCN(c2ccc(/C=C3\C(=O)Nc4ccccc43)cc2)CC1`, 316 nM.

Turning to `Cc1cc(C[n+]2ccccc2)[nH]c1/C=C1\C(=O)Nc2ccccc21`, for the setting “Homo sapiens, 46 h”, the IC50 was 6.31 nM. The same measure, in the same setting: the same measure for `O=C(O)CCn1cc(/C=C2\C(=O)Nc3ccccc32)c2ccccc21`: 200 nM. Same read-out and setting: the same measure for `Cc1cc(C)c(/C=C2\C(=O)Nc3cccc(Cl)c32)[nH]1`: 1 nM; for `O=C1Nc2ccccc2/C1=C\c1ccc(O)cc1O`: 316 nM; for `O=C1Nc2ccccc2/C1=C/c1c[nH]c2cc(F)ccc12`: 1 nM. Still for that read-out and setting: under `COc1cc[nH]c1/C=C1\C(=O)Nc2ccccc21` stands 20 nM. Take `Cc1ccc(/C=C2\C(=O)Nc3ccccc32)cc1C`: where the note is “Homo sapiens, 46 h”, the IC50 is 50.1 nM.

As for `O=C(O)Cn1cc(/C=C2\C(=O)Nc3ccccc32)c2ccccc21` [drawing 229], the IC50 (Homo sapiens, 46 h) was 39.8 nM. Still for that read-out and setting: under `O=C1Nc2ccccc2/C1=C/c1c[nH]c2cccc(OCc3ccccc3)c12` stands 100 nM; under `COc1ccc(OC)c(/C=C2/C(=O)Nc3cc(C(F)(F)F)ccc32)c1`, 10 nM; under `Cc1cccc(COc2ccc(/C=C3/C(=O)Nc4ccccc43)cc2)n1`, 398 nM. The same measure, in the same setting: under `COc1ccc(CN2C(=O)/C(=C\c3[nH]c(C)cc3C)c3ccccc32)cc1` stands 31.6 nM; under `Cc1[nH]c(/C=C2\C(=O)N(O)c3ccccc32)c(C)c1Br`, 1 nM; under `O=C1Nc2ccccc2/C1=C/c1ccc2ccccc2c1`, 631 nM.
